Reference: US10787452B2 (Vertex Pharmaceuticals Incorporated, priority 2012, dated 2020)

Tested on: HCT116 colorectal cancer cells
Assay: Cisplatin sensitization assay (96 h cell viability MTS);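 also: compound concentration needed to lower the Cisplatin-alone IC50 by a set fold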
Assay type: cell-based
Conditions: 96 h MTS, compound plus Cisplatin
Method: Compounds can be screened for their ability to sensitize HCT116 colorectal cancer cells to Cisplatin using a 96 h cell viability (MTS) assay. […] Compounds and Cisplatin are then both added simultaneously to the cell media in 2-fold serial dilutions from a top final concentration of 10 μM as a full matrix of concentrations in a final cell volume of 200 μl, and the cells are then incubated at 37° C. in 5% CO2. After 96 h, 40 μl of MTS reagent (Promega G358a) is added to each well and the cells are incubated for 1 h at 37° C. in 5% CO2.

| Structure (SMILES) | Cisplatin Sensitization Assay |
| --- | --- |
| Cc1ccncc1-c1ccncc1NC(=O)c1c(N)nn2cc(F)cnc12 [I-C-30, 2-amino-6-fluoro-N-(4-methyl-[3,4′-bipyridin]-3′-yl)pyrazolo[1,5-a]pyrimidine-3-carboxamide] | +++ (Compounds with a Cisplatin sensitization value of <0.02 μM are marked with “+++.”) |
| Nc1nn2cc(F)cnc2c1C(=O)Nc1cnccc1C1CCOC1 (centres unmarked) [I-C-75, 2-amino-6-fluoro-N-(4-(tetrahydrofuran-3-yl)pyridin-3-yl)pyrazolo[1,5-a]pyrimidine-3-carboxamide] | ++ (Compounds with a Cisplatin sensitization value >0.02 μM but <0.2 μM are marked with “++.”) |
| CN(C)C1CN(C(=O)C2CCN(c3c(F)cncc3NC(=O)c3c(N)nn4cc(F)cnc34)CC2)C1 [I-G-22, 2-amino-N-(4-(4-(3-(dimethylamino)azetidine-1-carbonyl)piperidin-1-yl)-5-fluoropyridin-3-yl)-6-fluoropyrazolo[1,5-a]pyrimidine-3-carboxamide] | +++ (Compounds with a Cisplatin sensitization value of <0.02 μM are marked with “+++.”) |
| COC1CCN(c2ccncc2NC(=O)c2c(N)nn3cc(F)cnc23)CC1 [I-N-266, 2-amino-6-fluoro-N-(4-(4-methoxypiperidin-1-yl)pyridin-3-yl)pyrazolo[1,5-a]pyrimidine-3-carboxamide] | +++ (Compounds with a Cisplatin sensitization value of <0.02 μM are marked with “+++.”) |
| CN1CCC(S(=O)(=O)N2CCN(c3c(F)cncc3NC(=O)c3c(N)nn4cc(F)cnc34)CC2)CC1 [I-N-175, 2-amino-6-fluoro-N-(5-fluoro-4-(4-((1-methylpiperidin-4-yl)sulfonyl)piperazin-1-yl)pyridin-3-yl)pyrazolo[1,5-a]pyrimidine-3-carboxamide] | +++ (Compounds with a Cisplatin sensitization value of <0.02 μM are marked with “+++.”) |
| Nc1nn2cc(F)cnc2c1C(=O)Nc1cnccc1N1CCC(CN2CCC(F)(F)C2)CC1 [I-N-197, 2-amino-N-(4-(4-((3,3-difluoropyrrolidin-1-yl)methyl)piperidin-1-yl)pyridin-3-yl)-6-fluoropyrazolo[1,5-a]pyrimidine-3-carboxamide] | +++ (Compounds with a Cisplatin sensitization value of <0.02 μM are marked with “+++.”) |
| CN1C[C@@H]2CCN(c3ccncc3NC(=O)c3c(N)nn4cc(F)cnc34)C[C@@H]2C1=O [I-N-224, 2-amino-6-fluoro-N-(4-((3aR,7aR)-2-methyl-3-oxohexahydro-1H-pyrrolo[3,4-c]pyridin-5(6H)-yl)pyridin-3-yl)pyrazolo[1,5-a]pyrimidine-3-carboxamide] | + (Compounds with a Cisplatin sensitization value >0.2 μM but <5 μM are marked with “+.”) |
| CN1CC[C@@H](OC2CCN(c3c(F)cncc3NC(=O)c3c(N)nn4cc(F)cnc34)CC2)C1 [I-N-132, (R)-2-amino-6-fluoro-N-(5-fluoro-4-(4-((1-methylpyrrolidin-3-yl)oxy)piperidin-1-yl)pyridin-3-yl)pyrazolo[1,5-a]pyrimidine-3-carboxamide] | +++ (Compounds with a Cisplatin sensitization value of <0.02 μM are marked with “+++.”) |
| Nc1nn2cc(F)cnc2c1C(=O)Nc1cncc(Cl)c1N1CCCC1 [I-N-281, 2-amino-N-(5-chloro-4-(pyrrolidin-1-yl)pyridin-3-yl)-6-fluoropyrazolo[1,5-a]pyrimidine-3-carboxamide] | +++ (Compounds with a Cisplatin sensitization value of <0.02 μM are marked with “+++.”) |
| CN1CCOC(C(=O)N2CCN(c3c(F)cncc3NC(=O)c3c(N)nn4cc(F)cnc34)CC2)C1 (centres unmarked) [I-N-174, 2-amino-6-fluoro-N-(5-fluoro-4-(4-(4-methylmorpholine-2-carbonyl)piperazin-1-yl)pyridin-3-yl)pyrazolo[1,5-a]pyrimidine-3-carboxamide] | +++ (Compounds with a Cisplatin sensitization value of <0.02 μM are marked with “+++.”) |
| Nc1nn2cc(F)cnc2c1C(=O)Nc1cnccc1-n1ccnc1 [I-N-7, N-(4-(1H-imidazol-1-yl)pyridin-3-yl)-2-amino-6-fluoropyrazolo[1,5-a]pyrimidine-3-carboxamide] | ++ (Compounds with a Cisplatin sensitization value >0.02 μM but <0.2 μM are marked with “++.”) |
| CCOc1ccncc1NC(=O)c1c(N)nn2cc(F)cnc12 [I-O-14, 2-amino-N-(4-ethoxypyridin-3-yl)-6-fluoropyrazolo[1,5-a]pyrimidine-3-carboxamide] | +++ (Compounds with a Cisplatin sensitization value of <0.02 μM are marked with “+++.”) |
| Cc1ncnn1-c1ccncc1NC(=O)c1c(N)nn2cc(F)cnc12 [I-N-162, 2-amino-6-fluoro-N-(4-(5-methyl-1H-1,2,4-triazol-1-yl)pyridin-3-yl)pyrazolo[1,5-a]pyrimidine-3-carboxamide] | ++ (Compounds with a Cisplatin sensitization value >0.02 μM but <0.2 μM are marked with “++.”) |
| CN1CCCN(c2ccncc2NC(=O)c2c(N)nn3cc(Cl)cnc23)CC1 [I-N-43, 2-amino-6-chloro-N-(4-(4-methyl-1,4-diazepan-1-yl)pyridin-3-yl)pyrazolo[1,5-a]pyrimidine-3-carboxamide] | ++ (Compounds with a Cisplatin sensitization value >0.02 μM but <0.2 μM are marked with “++.”) |
| CN1CCC(C(=O)N2CCN(c3c(F)cncc3NC(=O)c3c(N)nn4cc(F)cnc34)CC2)CC1 [I-N-128, 2-amino-6-fluoro-N-(5-fluoro-4-(4-(1-methylpiperidine-4-carbonyl)piperazin-1-yl)pyridin-3-yl)pyrazolo[1,5-a]pyrimidine-3-carboxamide] | +++ (Compounds with a Cisplatin sensitization value of <0.02 μM are marked with “+++.”) |
| Nc1nn2cc(F)cnc2c1C(=O)Nc1cnccc1N1CCC(N2CCCC2=O)CC1 [I-N-230, 2-amino-6-fluoro-N-(4-(4-(2-oxopyrrolidin-1-yl)piperidin-1-yl)pyridin-3-yl)pyrazolo[1,5-a]pyrimidine-3-carboxamide] | +++ (Compounds with a Cisplatin sensitization value of <0.02 μM are marked with “+++.”) |
| Cc1ncccc1-c1ccncc1NC(=O)c1c(N)nn2cc(F)cnc12 [I-C-20, 2-amino-6-fluoro-N-(2-methyl-[3,4′-bipyridin]-3′-yl)pyrazolo[1,5-a]pyrimidine-3-carboxamide] | +++ (Compounds with a Cisplatin sensitization value of <0.02 μM are marked with “+++.”) |
| Nc1nn2cc(F)cnc2c1C(=O)Nc1cncc(F)c1N1CCN(S(=O)(=O)C2CCOCC2)CC1 [I-N-158, 2-amino-6-fluoro-N-(5-fluoro-4-(4-((tetrahydro-2H-pyran-4-yl)sulfonyl)piperazin-1-yl)pyridin-3-yl)pyrazolo[1,5-a]pyrimidine-3-carboxamide] | +++ (Compounds with a Cisplatin sensitization value of <0.02 μM are marked with “+++.”) |
| COCC1CN(c2ccncc2NC(=O)c2c(N)nn3cc(Cl)cnc23)CCN1C (centres unmarked) [I-N-47, 2-amino-6-chloro-N-(4-(3-(methoxymethyl)-4-methylpiperazin-1-yl)pyridin-3-yl)pyrazolo[1,5-a]pyrimidine-3-carboxamide] | ++ (Compounds with a Cisplatin sensitization value >0.02 μM but <0.2 μM are marked with “++.”) |
| CN1CCN(c2ccncc2NC(=O)c2c(N)nn3cc(F)cnc23)CC12CCOCC2 [I-N-133, 2-amino-6-fluoro-N-(4-(1-methyl-9-oxa-1,4-diazaspiro[5.5]undecan-4-yl)pyridin-3-yl)pyrazolo[1,5-a]pyrimidine-3-carboxamide] | ++ (Compounds with a Cisplatin sensitization value >0.02 μM but <0.2 μM are marked with “++.”) |
| Nc1nn2cc(F)cnc2c1C(=O)Nc1cncc(F)c1N1CCC(C(=O)N2CC(N3CCCCC3)C2)CC1 [I-G-57, 2-amino-6-fluoro-N-(5-fluoro-4-(4-(3-(piperidin-1-yl)azetidine-1-carbonyl)piperidin-1-yl)pyridin-3-yl)pyrazolo[1,5-a]pyrimidine-3-carboxamide] | +++ (Compounds with a Cisplatin sensitization value of <0.02 μM are marked with “+++.”) |
| CN1CCN(C(=O)N2CCN(c3c(F)cncc3NC(=O)c3c(N)nn4cc(F)cnc34)CC2)CC1 [I-N-140, 2-amino-6-fluoro-N-(5-fluoro-4-(4-(4-methylpiperazine-1-carbonyl)piperazin-1-yl)pyridin-3-yl)pyrazolo[1,5-a]pyrimidine-3-carboxamide] | +++ (Compounds with a Cisplatin sensitization value of <0.02 μM are marked with “+++.”) |
| Nc1nn2cc(F)cnc2c1C(=O)Nc1cncc(F)c1N1CCN(C(=O)CN2CCCC2)CC1 [I-N-187, 2-amino-6-fluoro-N-(5-fluoro-4-(4-(2-(pyrrolidin-1-yl)acetyl)piperazin-1-yl)pyridin-3-yl)pyrazolo[1,5-a]pyrimidine-3-carboxamide] | +++ (Compounds with a Cisplatin sensitization value of <0.02 μM are marked with “+++.”) |
| Nc1nn2cc(F)cnc2c1C(=O)Nc1cncc(F)c1N1CCN(C(=O)C23CCN(CC2)CC3)CC1 [I-N-134, 2-amino-6-fluoro-N-(5-fluoro-4-(4-(quinuclidine-4-carbonyl)piperazin-1-yl)pyridin-3-yl)pyrazolo[1,5-a]pyrimidine-3-carboxamide] | + (Compounds with a Cisplatin sensitization value >0.2 μM but <5 μM are marked with “+.”) |
| Nc1nn2cc(F)cnc2c1C(=O)Nc1cnccc1O[C@H]1CCCNC1 [I-O-85, (S)-2-amino-6-fluoro-N-(4-(piperidin-3-yloxy)pyridin-3-yl)pyrazolo[1,5-a]pyrimidine-3-carboxamide] | +++ (Compounds with a Cisplatin sensitization value of <0.02 μM are marked with “+++.”) |
| CN1CCCCC1C(=O)N1CCN(c2c(F)cncc2NC(=O)c2c(N)nn3cc(F)cnc23)CC1 (centres unmarked) [I-N-173, 2-amino-6-fluoro-N-(5-fluoro-4-(4-(1-methylpiperidine-2-carbonyl)piperazin-1-yl)pyridin-3-yl)pyrazolo[1,5-a]pyrimidine-3-carboxamide] | +++ (Compounds with a Cisplatin sensitization value of <0.02 μM are marked with “+++.”) |
